Where “and” joins values, the source holds several entries; their conditions need not be identical. Equal values may be shown once.
Tested on: 422866-222-R5-J1-PDC spheroids with HUVEC/MSC, viability
Assay: Anticancer human tumor 422866-222-R5-J1-PDC patient-derived pancreatic adenocarcinoma cell line growth inhibition [GQUAD]
Settings: for viability, T/C: stronger effect = lower value
Source text: DNA G-quadruplex Stabilizer Agents in Combinations in Complex Spheroids
A high-throughput screen of multi-cell type tumor spheroids was designed to identify active combinations of DNA G-quadruplex stabilizer agents and targeted small molecules. Complex spheroids include a stromal component modeled by human endothelial cells (HUVEC) and fibroblasts modeled by human mesenchymal stem cells (MSCs). The concentration ranges selected for each drug and investigational agent were based upon clinically achievable concentrations if the clinical Cmax of the agent was known.
Compounds. The drugs and investigational agents: pidnarulex (CX-5461; NSC782164), APTO-253 (NSC789042), BRACO-19 (NSC847499), peposertib (NSC802822), ceralasertib (NSC780249), elimusertib (NSC800525), camonsertib (NSC841442), AZD-1390 (NSC803789), olaparib (NSC753686), talazoparib (NSC767125), ART-558 (NSC835418), sotorasib (NSC818433), MRTX-1133 (NSC836407), SN-38 (NSC673596), topotecan (NSC609699), etoposide (NSC141540), doxorubicin (NSC123127), gemcitabine (NSC613327), 5-fluorouracil (NSC19893), paclitaxel (NSC125973), vemurafenib (NSC761431), panobinostat (NSC761190), R-306465 (JNJ-16241199; NSC773264), adavosertib (NSC754352), TP-3654 (NSC805149), carboplatin (NSC241240), KSQ-4279 (NSC840948), and staurosporine (NSC755774) were obtained from the National Cancer Institute (NCI) Developmental Therapeutics Program Chemical Repository (34). The FDA-approved anticancer drug set is available from the NCI Developmental Therapeutics Program. […] The stock solutions were prepared in dimethyl sulfoxide (DMSO, Sigma-Aldrich, St. Louis, MO, cat. D2650) at 800-fold the tested concentration and stored at -70 degrees C prior to their use. All drugs and investigational agents were tested over a range starting from a high concentration at or near the clinical Cmax and decreasing in half-log increments. If the clinical Cmax for an agent had not been determined, the highest concentration tested was 10 microM.
2.3 Cell Culture. All cells were maintained in an incubator at 37 degrees C and 5% CO2 with 95% humidity. The PDC lines were cultured according to standard operating procedures established by the NCI PDMR. All PDCs were thawed and cultured in Matrigel-coated flasks prepared with a working solution of 1X Ham's F-12 nutrient mix, without supplementation (Invitrogen, cat. 11765054), 100 U/mL penicillin-streptomycin (Invitrogen, cat. 15140122), and 2.5% Matrigel (Corning Inc., cat. 354248) for the first three passages. The 857933-349-R-J2-PDC line was cultured in 6C/Colon 1B media, which includes advanced DMEM/F-12 (Thermo Fisher Scientific, cat. 12634028), 10 mM HEPES (Thermo Fisher Scientific, cat. 15630080), 1X GlutaMAX supplement (Thermo Fisher Scientific, cat. 35050061), 0.1 mg/mL primocin (InvivoGen, cat. ant-pm-2), 10% defined fetal bovine serum, heat inactivated (HyClone Laboratories Inc., cat. SH30070.03HI), 50% L-WRN conditioned media (ATCC, cat. CRL-3276), 1.25 mM N-Acetyl-L-cysteine (Sigma-Aldrich, cat. A9165), 10 mM nicotinamide (Sigma-Aldrich, cat. N0636), 1X B-27 supplement (Thermo Fisher Scientific, cat. 17504044), 1X N-2 supplement (Thermo Fisher Scientific, cat. 17502048), 10 microM Y-27632 dihydrochloride (Tocris Bioscience, cat. 1254), and 50 ng/mL human EGF recombinant protein (Thermo Fisher Scientific, cat. PHG0311). The 485176-168-R4-J1-PDC line was cultured in Panc media, which includes all 6C/Colon 1B media components plus 100 ng/mL human FGF-10 (Thermo Fisher Scientific, cat. 100-26), 500 nM SB-431542 (Selleckchem, cat. S1067), and gastrin (Tocris, cat. 3006).
[…]

[1] = curve of first compound, second compound 0.0316 µM
[2] = curve of first compound, second compound 0.1 µM
[3] = curve of first compound, second compound 0.316 µM
[4] = curve of first compound, second compound 1 µM
[5] = curve of first compound, second compound 3.16 µM
[6] = curve of first compound, second compound 10 µM
[7] = second compound 0.0316 µM, first compound 0.0316 µM
[8] = second compound 0.0316 µM, first compound 0.1 µM
[9] = second compound 0.0316 µM, first compound 0.316 µM
[10] = second compound 0.0316 µM, first compound 1 µM
[11] = second compound 0.0316 µM, first compound 3.16 µM
[12] = second compound 0.0316 µM, first compound 10 µM
[13] = second compound 0.1 µM, first compound 0.0316 µM
[14] = second compound 0.1 µM, first compound 0.1 µM
[15] = second compound 0.1 µM, first compound 0.316 µM
[16] = second compound 0.1 µM, first compound 1 µM
[17] = second compound 0.1 µM, first compound 3.16 µM
[18] = second compound 0.1 µM, first compound 10 µM
[19] = second compound 0.316 µM, first compound 0.0316 µM
[20] = second compound 0.316 µM, first compound 0.1 µM
[21] = second compound 0.316 µM, first compound 0.316 µM
[22] = second compound 0.316 µM, first compound 1 µM
[23] = second compound 0.316 µM, first compound 3.16 µM
[24] = second compound 0.316 µM, first compound 10 µM
[25] = second compound 1 µM, first compound 0.0316 µM
[26] = second compound 1 µM, first compound 0.1 µM
[27] = second compound 1 µM, first compound 0.316 µM
[28] = second compound 1 µM, first compound 1 µM
[29] = second compound 1 µM, first compound 3.16 µM
[30] = second compound 1 µM, first compound 10 µM
[31] = second compound 3.16 µM, first compound 0.0316 µM
[32] = second compound 3.16 µM, first compound 0.1 µM
[33] = second compound 3.16 µM, first compound 0.316 µM
[34] = second compound 3.16 µM, first compound 1 µM
[35] = second compound 3.16 µM, first compound 3.16 µM
[36] = second compound 3.16 µM, first compound 10 µM
[37] = second compound 10 µM, first compound 0.0316 µM
[38] = second compound 10 µM, first compound 0.1 µM
[39] = second compound 10 µM, first compound 0.316 µM
[40] = second compound 10 µM, first compound 1 µM
[41] = second compound 10 µM, first compound 3.16 µM
[42] = second compound 10 µM, first compound 10 µM
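Note: spheroids exposed to compounds for seven days before reading.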
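Throughout, for viability, T/C: percent viability relative to DMSO vehicle control taken as 100%.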

In the case of `CC1COCCN1c1cc(C2(S(C)(=N)=O)CC2)nc(-c2ccnc3[nH]ccc23)n1` (stereo not given) + Cc1cnc(CNC(=O)c2c(=O)c3ccc(N4CCCN(C)CC4)nc3n3c2sc2ccccc23)cn1, the IC50 [1] is reported as > 10000 nM, the IC50 [2] is reported as > 10000 nM and the IC50 [3] is reported as > 10000 nM. For the same compound, the IC50 [4] was > 10000 nM, the IC50 [5] was > 10000 nM and the IC50 [6] was > 10000 nM. For the same compound, the viability, T/C [7] was 102%, the viability, T/C [8] was 103% and the viability, T/C [9] was 95.1%. The viability, T/C [10] was 80.8%, the viability, T/C [11] was 71% and the viability, T/C [12] was 50.7%. It also gave a viability, T/C [13] of 104%, a viability, T/C [14] of 102% and a viability, T/C [15] of 96.2%. The viability, T/C [16] was 80%, the viability, T/C [17] was 67.7% and the viability, T/C [18] was 53.6%. For the same compound, the viability, T/C [19] was 91.7%, the viability, T/C [20] was 98.5% and the viability, T/C [21] was 99.5%. For the same compound, the viability, T/C [22] was 96.2%, the viability, T/C [23] was 77.4% and the viability, T/C [24] was 61.2%. It also gave a viability, T/C [25] of 83.2%, a viability, T/C [26] of 92.8% and a viability, T/C [27] of 103%. The viability, T/C [28] was 86.3%, the viability, T/C [29] was 72.8% and the viability, T/C [30] was 77.6%. The viability, T/C [31] was 93.9%, the viability, T/C [32] was 96.6% and the viability, T/C [33] was 90.2%. For the same compound, the viability, T/C [34] was 94.7%, the viability, T/C [35] was 78.1% and the viability, T/C [36] was 71.6%. It also gave a viability, T/C [37] of 89.7%, a viability, T/C [38] of 92.3% and a viability, T/C [39] of 93.1%. It also gave a viability, T/C [40] of 87.7%, a viability, T/C [41] of 82% and a viability, T/C [42] of 64.7%.
For `CC(=O)O[C@H]1C(=O)[C@@]2(C)[C@H]([C@H](OC(=O)c3ccccc3)[C@]3(O)C[C@H](OC(=O)[C@H](O)[C@@H](NC(=O)c4ccccc4)c4ccccc4)C(C)=C1C3(C)C)[C@]1(OC(C)=O)CO[C@@H]1C[C@@H]2O`, the viability, T/C (compound 0.0316 µM) was 96% and 75.6% and 77.1%, the viability, T/C (compound 0.1 µM) was 89.9% and 64.8% and 64.4% and the viability, T/C (compound 0.316 µM) was 82.1% and 66.5% and 76.9%. The viability, T/C (compound 1 µM) was 47.7% and 68.6% and 75.5%, the viability, T/C (compound 3.16 µM) was 39.7% and 75% and 67.1% and the IC50 (curve of compound) was 1460 nM and > 10000 nM.
With `CCCS(=O)(=O)Nc1ccc(F)c(C(=O)c2c[nH]c3ncc(-c4ccc(Cl)cc4)cc23)c1F` + Cc1[nH]c2ccc(F)cc2c1-c1nc2c3cccnc3c3ncccc3c2[nH]1 the IC50 [1] was 559 nM, the IC50 [2] was 1020 nM and the IC50 [3] was 1100 nM. For the same compound, the IC50 [4] was 591 nM, the IC50 [5] was 293 nM and the IC50 [6] was 139 nM. The viability, T/C [7] was 114%, the viability, T/C [8] was 93.4% and the viability, T/C [9] was 61.5%. It also gave a viability, T/C [10] of 37.4%, a viability, T/C [11] of 34.5% and a viability, T/C [12] of 36.7%. For the same compound, the viability, T/C [13] was 110%, the viability, T/C [14] was 88.5% and the viability, T/C [15] was 61.4%. For the same compound, the viability, T/C [16] was 52.4%, the viability, T/C [17] was 40.6% and the viability, T/C [18] was 32.3%. It also gave a viability, T/C [19] of 134%, a viability, T/C [20] of 95.6% and a viability, T/C [21] of 75.6%. For the same compound, the viability, T/C [22] was 43.8%, the viability, T/C [23] was 43.4% and the viability, T/C [24] was 29%. It also gave a viability, T/C [25] of 85.2%, a viability, T/C [26] of 90.3% and a viability, T/C [27] of 63.1%. It also gave a viability, T/C [28] of 41.5%, a viability, T/C [29] of 38.1% and a viability, T/C [30] of 37%. For the same compound, the viability, T/C [31] was 67.3%, the viability, T/C [32] was 52.8% and the viability, T/C [33] was 53.1%. The viability, T/C [34] was 45.2%, the viability, T/C [35] was 43% and the viability, T/C [36] was 41.9%. The viability, T/C [37] was 58.2%, the viability, T/C [38] was 50.8% and the viability, T/C [39] was 47.5%. The viability, T/C [40] was 50.3%, the viability, T/C [41] was 43.2% and the viability, T/C [42] was 49.9%.

— PubChem BioAssay AID2060511 (Molecular Pharmacology Branch, DTP, NCI, 2025)
